# Data reported in US4495356A, “1,4-Dihydropyridine compound” (Nikken Chemicals Co., Ltd., priority 1982, dated 1985).
# Experiments:
# [1] = test system: liver disorder induced by D-galactosamine; assay: Effect on liver disorder induced by D-galactosamine in rats (serum GOT, GPT, bilirubin); type: in vivo, Wistar-Imamichi male rats; conditions: D-galactosamine 400 mg/kg i.p., 200 mg/kg orally for 2 days, blood 24 hours after D-galactosamine; for Bilirubin in serum: normal 0.12 ± 0.02, no combination compound 0.43 ± 0.06; for GPT in serum: normal 15 ± 1, no combination compound 2195 ± 460; for GOT in serum: normal 97 ± 3, no combination compound 6170 ± 1507
# Method: Effect of 3,5-diethoxycarbonyl-4-[2'-(5',6'-dihydro-p-dioxinyl)]-2,6-dimethyl-1,4-dihydropyridine (compound of Example 1) on liver disorder induced by D-galactosamine.
# The effect of the sample compound to be tested on hepatic disorder was evaluated by determining the levels of GOT, GPT and bilirubin, which are known as an indicator of hepatic disorder, in serum, after administering D-galactosamine hydrochloride and the sample compound to Wistar-Imamichi male rats (8 week age and body weight of 260 to 280 g) as follows.
# Five rats were used in each test group. The sample compound (i.e., the compound prepared in Example 1) was suspended at a concentration of 40 mg/ml in a 0.1% aqueous solution of Tween-80 (Trademark of surfactant available from Atlas Chemical Corp.). Alpha-tocopherol was dissolved at a concentration of 40 mg/ml in olive oil. This solution was administered orally at a dose of 200 mg/kg each for 2 days (25 and 1 hours before the administration of D-galactosamine). D-galactosamine was dissolved at a concentration of 100 mg/ml in a Physiological saline and this solution was administered intraperitoneally at a single dose of 400 mg/kg one hour after the final administration of the sample compound.
# Blood samples were collected from the carotid artery under pentobarbital anesthesia, 24 hours after the administration of D-galactosamine. The rats were fasted for 18 to 20 hours before collecting of blood sample.
# (§1) The determination of GOT and GPT in serum was carried out according to a UV method and the determination of bilirubin was carried out according to a diazo method.
# [2] = test system: hepatic disorder induced by carbon tetrachloride; assay: Effect on hepatic disorder induced by carbon tetrachloride in rats (Examples 6 and 7; serum GOT, GPT, bilirubin); type: in vivo, SLC-Wistar male rats; conditions: CCl4 0.5 ml/kg i.p., 200 mg/kg orally for 2 days, blood 24 hours after CCl4; for Bilirubin in serum: normal 0.10 ± 0.00, no combination compound 0.24 ± 0.02; for GPT in serum: normal 46 ± 6, no combination compound 10266 ± 818; for GOT in serum: normal 97 ± 10, no combination compound 16650 ± 1636
# Method: The effects of the sample compounds on hepatic disorders were evaluated by determining the levels of GOT, GPT, and bilirubin […] in serum, after administering carbon tetrachloride and the sample compound to SLC-Wistar male rats (10 week age and body weight of 240 to 270 g) as follows.
# Five rats were used in each test group. The sample compounds (i.e., the compounds prepared in Examples 2 and 3) were suspended at a concentration of 40 mg/ml in a 0.1% aqueous solution of Tween-80. Alpha-tocopherol was dissolved at a concentration of 40 mg/ml in olive oil. This solution was administered orally at a dose of 200 mg/kg each for 2 days. Glutathione was dissolved at a concentration of 100 mg/ml in a 0.1% aqueous solution of Tween-80. This solution was orally administered at a dose of 500 mg/kg for 2 days. Carbon tetrachloride was intraperitoneally administered as a 10% olive oil solution at a dose of 5 ml/kg (0.5 ml/kg in terms of CCl4) one hour after the final administration of each sample compound.
# Blood sampels were collected from the carotid artery under pentobarbital anesthesia, 24 hours after the administration of carbon tetrachloride. The rats were fasted for 18 to 20 hours before collecting of a blood sample.
# as §1
# [3] = test system: hepatic disorder induced by carbon tetrachloride; assay: Effect on hepatic disorder induced by carbon tetrachloride in rats (Example 5; serum GOT, GPT, bilirubin); type: in vivo, SLC-Wistar male rats; conditions: CCl4 0.5 ml/kg i.p., blood 24 hours after CCl4; for Bilirubin in serum: normal 0.12 ± 0.02, no combination compound 0.26 ± 0.02; for GPT in serum: normal 32 ± 3, no combination compound 10606 ± 1952; for GOT in serum: normal 73 ± 5, no combination compound 18228 ± 2032
# Method: Five rats were used in each test group. The sample compound (i.e., the compound prepared in Example 1) was suspended at a concentration of 40 mg/ml in a 0.1% aqueous solution of Tween-80. Alpha-tocopherol was dissolved at a concentration of 40 mg/ml in an olive oil. This solution was administered orally at a dose of 200 mg/kg each for 2 days. Glutathione was dissolved at a concentration of 100 mg/ml in a 0.1% aqueous solution of Tween-80. This solution was orally administered at a dose of 500 mg/kg for 2 days. Carbon tetrachloride was intraperitoneally administered as a 10% olive oil solution at a dose of 5 ml/kg (0.5 ml/kg in terms of CCl4) one hour after the final administration of the sample compound. Blood samples were collected from the carotid artery under pentobarbital anesthesia, 24 hours after the administration of carbon tetrachloride. […] The determination of GOT and GPT in serum was carried out according to a UV method and the determination of bilirubin was carried out according to a diazo method.
# in vivo = conditions: rat, oral, rats 5 week age, observed for 3 days
# [4] = glutathione 500 mg/kg orally for 2 days
Compound,Bilirubin in serum [1] [mg/dL],GPT in serum [1] [KU],GOT in serum [1] [KU],Bilirubin in serum [2] [mg/dL],GPT in serum [2] [KU],GOT in serum [2] [KU],Bilirubin in serum ([3]; 200 mg/kg orally for 2 days) [mg/dL],GPT in serum ([3]; 200 mg/kg orally for 2 days) [KU],GOT in serum ([3]; 200 mg/kg orally for 2 days) [KU],"Bilirubin in serum [3, 4] [mg/dL]","GPT in serum [3, 4] [KU]","GOT in serum [3, 4] [KU]",LD50 at 72 h (in vivo) [mg/kg]
"Cc1c(C)c2c(c(C)c1O)CCC(C)(CCCC(C)CCCC(C)CCCC(C)C)O2 (stereo not drawn) [alpha-tocopherol, reference compound]",0.26 ± 0.02,1043 ± 189,3065 ± 440,0.26 ± 0.04,9106 ± 591,14558 ± 1049,0.18 ± 0.02,5764 ± 1564,5662 ± 793,–,–,–,–
"COC(=O)C1=C(C)NC(C)=C(C(=O)OC)C1C1=COCCO1 [Example 3, 3,5-dimethoxycarbonyl-4-2'-(5',6'-dihydro-p-dioxinyl)-2,6-dimethyl-1,4-dihydropyridine]",–,–,–,0.14 ± 0.02,680 ± 107,901 ± 127,–,–,–,–,–,–,–
N[C@@H](CCC(=O)N[C@@H](CS)C(=O)NCC(=O)O)C(=O)O [glutathione],–,–,–,–,–,–,–,–,–,0.22 ± 0.02,7722 ± 1170,11272 ± 1904,–
"CCOC(=O)C1=C(C)NC(C)=C(C(=O)OCC)C1C1=COCCO1 [Example 1, 3,5-diethoxycarbonyl-4-[2'-(5',6'-dihydro-p-dioxinyl)]-2,6-dimethyl-1,4-dihydropyridine]",0.30 ± 0.06,862 ± 373,2194 ± 777,–,–,–,0.14 ± 0.02,1396 ± 290,1800 ± 321,–,–,–,~2000
"CCCOC(=O)C1=C(C)NC(C)=C(C(=O)OCCC)C1C1=COCCO1 [Example 2, 3,5-di-n-propyloxycarbonyl-4-[2'-(5',6'-dihydro-p-dioxynyl)]-2,6-dimethyl-1,4-dihydropyridine]",–,–,–,0.13 ± 0.03,1443 ± 228,2456 ± 734,–,–,–,–,–,–,≥ 2000
